In patent US8163909B2, “Substituted hydroxyethyl amine compounds as beta-secretase modulators and methods of use” (Amgen Inc., priority 2007, dated 2012):
pIC50: −log10 of the molar value. Where two headings read alike, the source gives them in different places.

Tests used:
[1] = molecular target: Beta Secretase enzyme (BACE) (Homo sapiens, UniProt P56817); test: In vitro enzymatic BACE FRET (fluorescence resonance energy transfer) assay; type: biochemical; conditions: for IC50: IC50's in uM;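 for all read-outs here: fluorescence read after 1 h with 50 nM quenched peptide substrate spanning the BACE cleavage site, in pH 4.2 acetate buffer containing 10% DMSO and nonionic detergent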
[2] = system: Aβ40 in conditioned medium of cells stably expressing Amyloid Precursor Protein (APP); test: In vitro BACE cell-based assay (Aβ40 in conditioned medium, sandwich ELISA); conditions: for IC50: IC50's in uM;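 for all read-outs here: compounds added as a dilution series, secreted peptide quantified by europium time-resolved fluorescence readout, potency fitted from percent of control versus compound concentration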
[3] = Microsomal stability assay, rat liver microsomes;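 note: rat liver microsomes (0.25 mg/mL) with about 1 µM compound plus 1 mM NADPH, pH 7.4, 37 °C for 30 min, parent left measured by LC-MS/MS against 0 min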
[4] = Microsomal stability assay, human liver microsomes;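 note: pooled human liver microsomes at 0.25 mg/mL with 1 µM compound and NADPH at 37 °C, pH 7.4, for 30 min, unchanged parent quantified by LC-MS/MS against the 0 min sample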
[5] = molecular target: CYP2D6 (Homo sapiens, UniProt P10635); test: CYP2D6 inhibition assay (bufuralol, pooled human liver microsomes)
[6] = BACE enzyme assay, read-out: BACE1 FRET assay
[7] = Homo sapiens, HEK293, cell-based assay, HEK cells, read-out: HEK cell assay
[8] = 2D6 IC50, CYP enzyme inhibition
[9] = read-out: BACE1 FRET assay (IC50)
[10] = Homo sapiens, HEK293, HEK cells, read-out: HEK cell assay (IC50)
[11] = BACE enzyme FRET assay, read-out: BACE1 FRET assay (IC50)
[12] = HEK cells, cell-based assay, read-out: HEK cell assay (IC50)
[13] = BACE enzyme assay, read-out: BACE1 FRET assay (IC50)
[14] = Homo sapiens, HEK293, HEK cells, cell-based assay, read-out: HEK cell assay (IC50)
[15] = Table 1, read-out: BACE1 FRET assay
[16] = Homo sapiens, HEK293, Table 1, HEK cells, read-out: HEK cell assay

CYP2D6, sequence (P10635 whole entry): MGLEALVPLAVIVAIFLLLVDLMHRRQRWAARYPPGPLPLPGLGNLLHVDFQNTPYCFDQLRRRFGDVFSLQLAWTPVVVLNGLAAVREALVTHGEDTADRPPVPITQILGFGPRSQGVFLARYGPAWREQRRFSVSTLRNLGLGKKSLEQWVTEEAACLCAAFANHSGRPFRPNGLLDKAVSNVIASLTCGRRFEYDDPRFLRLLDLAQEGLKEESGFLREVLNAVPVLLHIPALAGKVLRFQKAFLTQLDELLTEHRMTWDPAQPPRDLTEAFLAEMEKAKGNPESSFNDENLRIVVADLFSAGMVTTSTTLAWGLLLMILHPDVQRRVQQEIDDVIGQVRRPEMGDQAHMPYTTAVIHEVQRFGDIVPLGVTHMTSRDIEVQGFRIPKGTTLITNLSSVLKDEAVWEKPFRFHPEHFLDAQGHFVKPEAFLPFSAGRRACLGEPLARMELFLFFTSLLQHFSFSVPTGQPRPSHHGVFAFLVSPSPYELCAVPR
Beta Secretase enzyme (BACE), sequence (P56817 46-501): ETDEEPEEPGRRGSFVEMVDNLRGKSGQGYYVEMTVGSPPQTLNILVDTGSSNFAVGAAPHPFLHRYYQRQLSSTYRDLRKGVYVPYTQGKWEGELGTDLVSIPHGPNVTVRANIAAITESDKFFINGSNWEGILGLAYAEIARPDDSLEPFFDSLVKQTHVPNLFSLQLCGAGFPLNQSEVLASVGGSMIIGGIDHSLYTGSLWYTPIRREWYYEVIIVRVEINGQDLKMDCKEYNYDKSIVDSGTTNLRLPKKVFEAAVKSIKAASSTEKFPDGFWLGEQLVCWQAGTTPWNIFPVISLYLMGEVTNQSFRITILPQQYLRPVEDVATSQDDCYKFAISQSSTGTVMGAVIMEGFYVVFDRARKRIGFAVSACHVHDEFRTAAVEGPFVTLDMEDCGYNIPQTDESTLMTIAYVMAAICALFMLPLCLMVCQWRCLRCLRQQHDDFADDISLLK

In the case of `C#Cc1cccc(C[C@H](NC(=O)[C@H]2CCCO2)[C@H](O)CN[C@H]2CC3(CCC3)Oc3ncc(CC(C)(C)C)cc32)c1` [compound 896], the IC50 [1, 6] was 0.006 µM, the IC50 [2, 7] was 0.009 µM and the RLM ([3]; rat liver microsomal data) was 73 µL/min/mg. For the same compound, the HLM ([4]; human liver microsomal data) was 45 µL/min/mg and the pIC50 [5, 8] was 5.42.
With `CC(=O)N[C@@H](Cc1cccc(F)c1)[C@H](O)CN[C@H]1CC2(CCC2)Oc2c1cc(Cl)cc2-n1ccnc1` [compound 594] the pIC50 [1, 9] was 6.80, the pIC50 [2, 10] was 7.11 and the RLM ([3]; rat liver microsomes) was 61 µL/min/mg. For the same compound, the HLM ([4]; human liver microsomes) was 44 µL/min/mg and the pIC50 ([5]; 2D6 IC50, CYP2D6 inhibition) was 6.52.
`CO[C@H](C)C(=O)N[C@@H](Cc1cccc(C#N)c1)[C@H](O)CN[C@H]1CC2(CCC2)Oc2c(-c3ccncc3)cc(CC(C)C)cc21` [compound 620] gave a pIC50 [1, 9] of 8.00, a pIC50 [2, 10] of 8.30 and an RLM ([3]; rat liver microsomes) of 105 µL/min/mg. For the same compound, the HLM ([4]; human liver microsomes) was 48 µL/min/mg and the pIC50 ([5]; 2D6 IC50, CYP2D6 inhibition) was 5.72.
For `CCO[C@H](C)C(=O)N[C@@H](Cc1ccc2c(c1)OCO2)[C@H](O)CN[C@H]1CC2(CCC2)Oc2ncc(CC(C)(C)C)cc21` [compound 887], the IC50 [1, 6] was 0.102 µM, the IC50 [2, 7] was 0.052 µM and the RLM ([3]; rat liver microsomal data) was 136 µL/min/mg. It also gave an HLM ([4]; human liver microsomal data) of 37 µL/min/mg.
`COCC(=O)N[C@@H](Cc1cc(F)cc(F)c1)[C@H](O)CN[C@H]1CC2(CCC2)Oc2c1cc(Cl)cc2-n1ccnc1` [compound 581] gave a pIC50 [1, 9] of 7.09, a pIC50 [2, 10] of 7.12 and an RLM ([3]; rat liver microsomes) of 124 µL/min/mg. It also gave an HLM ([4]; human liver microsomes) of 91 µL/min/mg.
With `COCC(=O)N[C@@H](Cc1ccc2c(c1)OCO2)[C@H](O)CN[C@H]1CC2(CCC2)Oc2ccc(C[C@@H](C)F)cc21` [compound 558] the pIC50 [1, 6] was 6.60, the pIC50 ([2]; Homo sapiens, HEK293, HEK cells, read-out: HEK cell assay) was 6.47 and the “RLM” value ([3]; rat liver microsomal data) was 362 µL/min/mg. For the same compound, the “HLM” value ([4]; human liver microsomal data) was 167 µL/min/mg.
For `CO[C@@H](C)C(=O)N[C@@H](Cc1ccc2c(c1)OCO2)[C@H](O)CN[C@H]1CC2(CCC2)Oc2c1cc(CC(C)(C)C)nc2N(C)C` [compound 443], the pIC50 ([1]; Table 2, read-out: BACE1 FRET assay) was 7.19, the pIC50 ([2]; Homo sapiens, HEK293, Table 2, HEK cells, read-out: HEK cell assay) was 6.76 and the RLM ([3]; rat liver microsomal data) was 232 µL/min/mg. The HLM ([4]; human liver microsomal data) was 190 µL/min/mg.
In the case of `COCC(=O)N[C@@H](Cc1cccc(F)c1)[C@H](O)CN[C@H]1CC2(CCC2)Oc2c1cc(Cl)cc2-n1ccnc1` [compound 553], the pIC50 [1, 6] was 6.84, the “RLM” value ([3]; rat liver microsomal data) was 86 µL/min/mg and the “HLM” value ([4]; human liver microsomal data) was 47 µL/min/mg.
In the case of `C#Cc1cccc(C[C@H](NC(=O)[C@@H]2CCCO2)[C@H](O)CN[C@H]2CC3(CCC3)Oc3ncc(CC(C)(C)C)cc32)c1` [compound 897], the IC50 [1, 6] was 0.005 µM, the IC50 [2, 7] was 0.007 µM and the RLM ([3]; rat liver microsomal data) was 55 µL/min/mg. It also gave a pIC50 [5, 8] of 5.44.
With “(2R)—N-((1S,2R)-1-((4-fluorophenyl)methyl)-2-hydroxy-3-(((4′S)-6′-(3,3,3-trifluoropropyl)-3′,4′-dihydrospiro[cyclobutane-1,2′-pyrano[2,3-b]pyridin]-4′-yl)amino)propyl)-2-(methyloxy)propanamide ′(2S)—N-((1S,2R)-1-((4-fluorophenyl)methyl)-2-hydroxy-3-(((4′S)-6′-(3,3,3-trifluoropropyl)-3′,4′-dihydrospiro[cyclobutane-1,2′-pyrano[2,3-b]pyridin]-4′-yl)amino)propyl)-2-(methyloxy)propanamide [compound 192]” the pIC50 [1, 11] was 5.99 and the pIC50 [2, 12] was 5.69.
For `CC(=O)N[C@@H](Cc1ccc2c(c1)OCO2)[C@H](O)CN[C@H]1CC2(CCC2)Oc2c1cc(CC(C)(C)C)nc2Cl` [compound 124], the pIC50 [1, 13] was 7.54 and the pIC50 [2, 14] was 6.94.
With `COCC(=O)N[C@@H](Cc1cccc(F)c1)[C@H](O)CN[C@H]1C[C@]2(C[C@H](O)C2)Oc2ncc(CC(C)(C)C)cc21` [compound 232, N-((1S,2R)-3-(((1s,3S,4′S)-6′-(2,2-dimethylpropyl)-3-hydroxy-3′,4′-dihydrospiro[cyclobutane-1,2′-pyrano[2,3-b]pyridin]-4′-yl)amino)-1-((3-fluorophenyl)methyl)-2-hydroxypropyl)-2-(methyloxy)acetamide] the pIC50 [1, 11] was 8.63 and the pIC50 [2, 12] was 8.49.
Work on `CC(=O)N[C@@H](Cc1ccc(F)c(Cl)c1)[C@H](O)CN[C@H]1CC2(CCC2)Oc2ncc(CC(C)(C)C(F)F)cc21` [compound 215] yielded a pIC50 [1, 11] of 8.15 and a pIC50 [2, 14] of 7.58.
Compound `CC(=O)N[C@@H](Cc1ccc(Cl)c(F)c1)[C@H](O)CN[C@H]1CC2(CCC2)Oc2ncc(CC(C)(C)C(F)F)cc21` [compound 225] has a pIC50 [1, 11] of 8.04 and a pIC50 [2, 14] of 7.62.
`COCC(=O)N[C@@H](Cc1cccc(C(N)=O)c1)[C@H](O)CN[C@H]1CC2(CCC2)Oc2ncc(CC(C)(C)F)cc21` [compound 863] gave an IC50 [1, 6] of 0.013 µM and an IC50 [2, 7] of 0.033 µM.
Work on `COCC(=O)N[C@@H](Cc1cc(Br)c2c(c1)OCO2)[C@H](O)CN[C@H]1CC2(CCC2)Oc2ncc(CC(C)(C)C)cc21` [compound 204] yielded a pIC50 [1, 11] of 7.02 and a pIC50 [2, 14] of 7.08.
`CC(=O)N[C@@H](Cc1cc(F)cc(F)c1)[C@H](O)CN[C@H]1CC(C)(C)N2CCOc3cc(CC(C)(C)C)cc1c32` [compound 725] showed a pIC50 ([1]; BACE enzyme assay IC50, read-out: BACE1 FRET assay) of 7.23 and a pIC50 ([2]; Homo sapiens, HEK293, HEK cell-based assay IC50, read-out: HEK cell assay) of 6.75.
`CO[C@H](C)C(=O)N[C@@H](Cc1cccc(F)c1)[C@H](O)CN[C@H]1CC2(CCC2)Oc2cnc(CC(C)(C)F)cc21` [compound 253] gave a pIC50 [1, 11] of 7.44 and a pIC50 [2, 14] of 7.13.
Compound `CC(=O)N[C@@H](Cc1ccc2c(c1)OCO2)[C@H](O)CN[C@H]1CC2(CCC2)Oc2ccc(CC(C)(C)C)cc21` [compound 281] has a pIC50 [1, 11] of 7.95 and a pIC50 [2, 14] of 7.22.
In the case of `COC(C)C(=O)NC(Cc1cc(F)cc(F)c1)C(O)CNC1CC2(CCC2)Oc2ncc(CC(C)(C)C)cc21` [compound 103, (S)—N-((2S,3R)-1-(3,5-difluorophenyl)-3-hydroxy-4-((S)-6-neopentyl-3,4-dihydrospiro[cyclobutane-1,2H-pyrano[2,3-b]pyridin-4-ylamino)butan-2-yl)-2-methoxypropanamide], the pIC50 [1, 13] was 8.00 and the pIC50 [2, 12] was 7.57.
`CC(=O)N[C@@H](Cc1ccc2c(c1)OCO2)[C@H](O)CN[C@H]1CC2(CCC2)Oc2ncc(CC3(C(F)(F)F)CC3)cc21` [compound 312] gave a pIC50 [1, 11] of 7.21 and a pIC50 [2, 14] of 6.71.
In the case of `CCC(=O)N[C@@H](Cc1ccc2c(c1)OCO2)[C@H](O)CN[C@H]1CC2(CCC2)Oc2ncc(CC(C)(C)C)cc21` [compound 828], the IC50 [1, 6] was 0.012 µM and the IC50 ([2]; Homo sapiens, HEK293, HEK cell-based assay, read-out: HEK cell assay) was 0.014 µM.
For `COCC(=O)N[C@@H](Cc1ccc2c(c1)OCO2)[C@H](O)CN[C@H]1CC2(CCC2)Oc2ncc(C[C@H](C)C(F)(F)F)cc21` [compound 339], the pIC50 [1, 15] was 7.36 and the pIC50 [2, 16] was 6.90.
For `COCC(=O)N[C@@H](Cc1ccc2c(c1)OCO2)[C@H](O)CN[C@H]1CC2(CCC2)Oc2ncc(CC(C)(C)CF)cc21` [compound 181], the pIC50 [1, 13] was 7.81 and the pIC50 [2, 14] was 7.76.
Compound `CC(=O)N[C@@H](Cc1ccc(F)cc1)[C@H](O)CN[C@H]1CC2(CCC2)Oc2ncc(OC(C)(F)F)cc21` [compound 146] has a pIC50 [1, 13] of 6.38 and a pIC50 [2, 14] of 5.90.
With `CC(=O)N[C@@H](Cc1ccc(F)c(Br)c1)[C@H](O)CN(C)[C@H]1CC2(CCC2)Oc2ncc(CC(C)(C)C)cc21` [compound 354] the pIC50 [1, 15] was 5.32 and the pIC50 [2, 16] was 5.46.
For `COCC(=O)N[C@@H](Cc1ccc2c(c1)OCO2)[C@H](O)CN[C@H]1CC2(CCC2)Oc2c1cc(CC(C)(C)C)nc2Cl` [compound 127, N-((1S,2R)-1-(1,3-benzodioxol-5-ylmethyl)-3-(((4′S)-8′-chloro-6′-(2,2-dimethylpropyl)-3′,4′-dihydrospiro[cyclobutane-1,2′-pyrano[2,3-c]pyridin]-4′-yl)amino)-2-hydroxypropyl)-2-(methyloxy)acetamide], the pIC50 [1, 13] was 7.59 and the pIC50 [2, 14] was 7.17.
Compound `COCC(=O)N[C@@H](Cc1cccc(F)c1)[C@H](O)CN[C@H]1CC2(CCC2)Oc2cnc(CC(C)(C)C)cc21` [compound 122] has a pIC50 [1, 13] of 8.12 and a pIC50 [2, 14] of 7.64.
Work on `CC(C)(C)Cc1cnc2c(c1)[C@@H](NC[C@@H](O)[C@H](Cc1ccc(F)c(OC(F)(F)F)c1)NC(=O)C(F)(F)F)CC1(CCC1)O2` [compound 82] yielded a pIC50 [1, 13] of 8.55 and a pIC50 [2, 14] of 6.28.
Compound `CC(=O)N[C@@H](Cc1ccc2c(c1)OCO2)[C@H](O)CN[C@H]1CC2(CCC2)Oc2cnc(C(F)(F)F)cc21` [compound 265] has a pIC50 [1, 11] of 5.02 and a pIC50 [2, 14] of 6.41.
In the case of `CC(C)(C)Cc1cnc2c(c1)[C@@H](NC[C@@H](O)[C@H](Cc1ccc(F)cc1)NC(=O)[C@H](O)C(F)(F)F)CC1(CCC1)O2` [compound 68], the pIC50 [1, 13] was 7.31 and the pIC50 [2, 14] was 7.26.
For `CC(=O)N[C@@H](Cc1cc(F)cc(F)c1)[C@H](O)CN[C@H]1CC2(CCC2)Oc2ncc(CC(C)(C)C#N)cc21` [compound 91], the pIC50 [1, 13] was 8.35 and the pIC50 [2, 14] was 8.19.
`CC(=O)N[C@@H](Cc1ccc(F)cc1)[C@H](O)CN[C@H]1CC2(CCC2)Oc2ncc(CC(C)(C)C(F)F)cc21` [compound 159] showed a pIC50 [1, 13] of 7.72 and a pIC50 [2, 14] of 7.44.
`COC(C)C(=O)NC(Cc1cc(F)c2c(c1)OCO2)C(O)CNC1CC2(CCC2)Oc2ncc(CC(C)(C)C)cc21` (stereo not shown) [compound 300] showed a pIC50 [1, 11] of 7.24 and a pIC50 [2, 14] of 6.86.
